Measurements taken from patent US12662513B2, “Peptidic modulators of quorum sensing in Staphylococcus epidermidis” (priority 2016, dated 2026).
Entries after “also recorded” stand apart in the source; their conditions may differ. Read-outs that look alike come from different tables or passages of the source. Bridge positions count the residues as written; N and C are the ends. Square brackets hold non-standard residues; d marks the D form. Ends that are not written are not given here.

What was measured:
AgrC-I receptor [1] = target: T1, AgrC-I receptor (Staphylococcus epidermidis, UniProt Q5HMY3); test: cell-based; assay type: cell-based, S. epidermidis; conditions: for EC50 in AgrC-I: activation dose response in the presence of 50 nM S. epidermidis AIP-II; for IC50 in AgrC-I: antagonism dose response, peptide alone, Group-I GFP reporter strain, 24 h; for Mode/strength of activity toward AgrC-I (Group I), in words: dose response
Procedure: The initial set of 14 analogs (listed in Table 1) was synthesized using solid-phase peptide chemistry and purified to homogeneity using previously established HPLC methods (59). Each analog was tested for its ability to modulate the activity of the AgrC-I receptor using a wild-type S. epidermidis Group-I fluorescence reporter strain. This strain contained a reporter plasmid encoding a gfp gene fused to the P3 promoter found upstream of RNAIII (36).
(§1) Biological reagents, strains, and general methods. All standard reagents were purchased from commercial sources and used according to enclosed instructions. The S. epidermidis fluorescence reporter strains AH3408 (Group-I), AH3567 (Group-II), and AH3409 (Group-III) were cultured in Tryptic Soy Broth (TSB, from Sigma) augmented with 10 μg/mL of erythromycin (36). The S. epidermidis wild-type strain RP62A (Group-I) was cultured in TSB (from Sigma or EMD Millipore). The S. aureus fluorescence reporter strains AH1677 (Group-I), AH430 (Group-II), AH1747 (Group-III), and AH1872 (Group-IV) were cultured in Brain Heart Infusion (BHI, from Teknova) augmented with 10 μg/mL of chloramphenicol (65). All cultures were grown at 37° C. with shaking (200 rpm) unless noted otherwise. Absorbance and fluorescence measurements were obtained using a Biotek Synergy 2 microplate reader operating Gen5 data analysis software. IC50 values and EC50 values were determined from sigmoidal curve fits using GraphPad Prism software (v. 6.0).
(§2) Fluorescence reporter assay protocol. […] Each peptide solution was tested in triplicate. […] Plates were then incubated at 37° C. for 24 h. Fluorescence (EX 500 nm/EM 540 nm) and OD600 of each well was measured using a plate reader, and the fluorescence values were normalized to the DMSO control.
(§3) The remaining steps of the fluorescence assay were the same as above.

AgrC-II = conditions: for Mode/strength of activity toward AgrC-II (Group II), in words: dose response; for potency estimated from few doses: single replicate dose response, Table 3
Description: However, the biological significance of this agr interference remains unclear, although it has been hypothesized to potentially play a role in competition between different groups in a mixed bacteria milieu (18). […] To this end, the AIP analogs discussed above were screened in GFP reporter strains of Groups-II and -III S. epidermidis to complement the Group-I S. epidermidis data in Tables 1 and 2 (see Methods; FIGS. 7A and 7B).
as §1, §2, §3

AgrC-I receptor [2] = target: T1, AgrC-I receptor; assay type: cell-based, S. epidermidis; conditions: single replicate dose response, Table 3
[3] = read-out: AgrC-II: IC50 (estimated)
[4] = read-out: AgrC-I: IC50 (estimated)
[5] = read-out: AgrC-II: EC50 (estimated)
[6] = read-out: AgrC-I: EC50 (estimated)

T1 sequence (Q5HMY3 entry or part of it): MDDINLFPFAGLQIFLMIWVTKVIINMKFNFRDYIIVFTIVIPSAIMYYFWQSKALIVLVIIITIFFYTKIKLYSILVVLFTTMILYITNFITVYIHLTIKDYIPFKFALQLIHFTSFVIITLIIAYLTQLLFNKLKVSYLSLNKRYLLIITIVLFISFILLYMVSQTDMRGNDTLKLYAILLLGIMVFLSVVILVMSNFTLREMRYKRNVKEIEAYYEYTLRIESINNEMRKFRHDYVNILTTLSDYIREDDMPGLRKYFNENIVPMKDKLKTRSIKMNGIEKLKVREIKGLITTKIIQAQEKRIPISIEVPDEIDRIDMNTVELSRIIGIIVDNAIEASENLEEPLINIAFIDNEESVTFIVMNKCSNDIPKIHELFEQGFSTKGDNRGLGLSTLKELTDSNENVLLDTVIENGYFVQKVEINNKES

Substance | EC50 in AgrC-I (AgrC-I receptor [1]) | IC50 in AgrC-I (AgrC-I receptor [1]) | Mode/strength of activity toward AgrC-I (Group I), in words (AgrC-I receptor [1]) | also measured
D-S-V-(C-A-S-DY-F) (DSVCAS[dY]F; bridge 4-C; also: thiolactone between Cys4 side chain and C-terminus) [AIP-I D-Y7] | Inactive^c | Inactive^c | complete loss of activity | –
D-S-V-(C-A-S-Y-A) (DSVCASYA; bridge 4-C; also: thiolactone between Cys4 side chain and C-terminus) [AIP-I F8A] | Inactive^c | Inactive^c | – | –
D-S-V-(C-DA-S-Y-F) (DSVC[dA]SYF; bridge 4-C; also: thiolactone between Cys4 side chain and C-terminus) [AIP-I D-A5] | Inactive^c | Inactive^c | – | –
D-S-V-(DC-A-S-Y-F) (DSV[dC]ASYF; bridge 4-C; also: thiolactone between Cys4 side chain and C-terminus) [AIP-I D-C4] | Inactive^c | Inactive^c | – | –
I-N-(C-D-F-L-L) [S. aureus AIP-III, reference compound] | Inactive^c | Inactive^c | – | –
KYLPCSNYL [AIP-II 9aa N3L, K-Y-L-P-C-S-N-Y-L] | – | – | antagonist | Mode/strength of activity toward AgrC-II (Group II), in words (AgrC-II): antagonist; potency estimated from few doses (AgrC-II; [3]): 70.7 nM; potency estimated from few doses (AgrC-I receptor [2]; [4]): 9.4 nM
KYNVCANYL [AIP-II 9aa P4V S6A, K-Y-N-V-C-A-N-Y-L] | – | – | inactive | potency estimated from few doses (AgrC-II; [5]): > 7000 nM
KYNVCSAYL [AIP-II 9aa P4V N7A, K-Y-N-V-C-S-A-Y-L] | – | – | activating; also recorded: agonist | potency estimated from few doses (AgrC-II; [5]): > 600 nM; potency estimated from few doses (AgrC-I receptor [2]; [6]): > 1200 nM
KYNVCSNYL [AIP-II 9aa P4V, K-Y-N-V-C-S-N-Y-L] | – | – | antagonist | potency estimated from few doses (AgrC-II; [5]): 114 nM; potency estimated from few doses (AgrC-I receptor [2]; [4]): 45 nM
KYNVCSSYL [AIP-II 9aa P4V N7S, K-Y-N-V-C-S-S-Y-L] | – | – | switched; also recorded: antagonist | potency estimated from few doses (AgrC-II; [3]): 6.5 nM; potency estimated from few doses (AgrC-I receptor [2]; [6]): > 1800 nM
KYVPCSNYL [AIP-II 9aa N3V, K-Y-V-P-C-S-N-Y-L] | – | – | antagonist | Mode/strength of activity toward AgrC-II (Group II), in words (AgrC-II): antagonist; potency estimated from few doses (AgrC-II; [3]): 108 nM; potency estimated from few doses (AgrC-I receptor [2]; [4]): 4.1 nM
Y-S-T-(C-D-F-I-M) (YSTCDFIM; bridge 4-C) [S. aureus AIP-I, reference compound] | Inactive^c | Inactive^c | – | –
